Experimental data from the METLIN SMRT retention time set (Domingo-Almenara et al. 2019).

Assay: gradient 5% acetonitrile 3 min, to 50% in 2 min, to 85% in 15 min, held 3 min, 100 µL/min
Conditions: column: Zorbax Extend-C18 2.1 x 50 mm; eluents: water / acetonitrile, 0.1% formic acid
Summary of the method: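 Using water and acetonitrile that each contained 0.1% formic acid, mixtures of ~100 pure standards were separated at 100 μL/min on a Zorbax Extend-C18 column (2.1 × 50 mm, 1.8 μm). The HPLC fed a quadrupole time-of-flight mass spectrometer working in positive and negative ionization mode, with dead and dwell volumes of 40 μL and 900 μL. Data were acquired over 3 months. Retention time was read from computationally picked adduct peaks after manual inspection of each.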

| RP-LC retention time | Structure (SMILES) |
| --- | --- |
| 669 s | Cc1oc(-c2[nH]ncc2C(=O)N2CCOCC2)cc1S(=O)(=O)Nc1cccc(F)c1 |
| 659 s | O=C(NCc1cccnc1)C1CCN(S(=O)(=O)c2ccc(-c3noc(C4CC4)n3)cc2)CC1 |
| 892 s | CCC1Oc2ccc(S(=O)(=O)N3CCC(C(=O)Nc4ccc(C)c(F)c4)CC3)cc2NC1=O (centres undefined) |
| 724 s | COc1cccc(NC(=O)CN2C(=O)NC3(CCCCC3)C2=O)c1 |
| 687 s | CCS(=O)(=O)N1CCc2nn(Cc3ccccc3)c(=O)n2CC1 |
| 1020 s | Cc1nc(C(=O)Nc2ccc(Cl)cc2F)c(C)o1 |
| 891 s | CCOc1ccc(-c2ccc(OCCNS(=O)(=O)c3ccccc3Cl)nn2)cc1 |
| 754 s | Cn1c(N2CCCC(C(=O)NCCC3=CCCCC3)C2)cc(=O)n(C)c1=O (centres undefined) |
| 822 s | Cc1ccc(NC(=O)N2CCC(N3CCN(Cc4ccccc4)C3=O)CC2)cc1 |
| 1090 s | Cc1ccsc1C1C2=C(CC(C)(C)CC2=O)OC2=C1C(=O)CC(C)(C)C2 |
| 953 s | CC(C)Cn1cc(S(=O)(=O)NCc2cccc(F)c2)c2cccnc21 |
| 610 s | COc1ccc(S(=O)(=O)N2CCC3(CC2)c2nccn2CCN3C)cc1OC |
| 579 s | Cc1ccccc1Cn1cc(-c2ccncc2)cc1C(=O)NC(C)c1cccnc1 (centres undefined) |
| 850 s | O=C(NCc1ccc(F)cc1)N1CCN(Cc2nc3cc(-c4ccccc4)ccc3o2)CC1 |
| 675 s | O=C(Nc1cccc(F)c1)[C@@H]1OCCN(C2CC2)[C@H]1c1ccccc1 |
| 759 s | COc1ccccc1N1CCN(C(=O)Cn2c(N3CCc4ccccc4C3)nc(C)cc2=O)CC1 |
| 846 s | COc1ccc(C(=O)N2CCCC(COc3ccc(C(=O)NC(C)C)cc3)C2)cc1F (centres undefined) |
| 631 s | CCOC(=O)C1=C(C)NC2=C(C(=O)C(C(=O)OC)C(C)C2)C1c1ccc(N(C)C)cc1 (centres undefined) |
| 626 s | Cc1noc(CNC(=O)c2n[nH]c3ccccc23)n1 |
| 612 s | CN(CCNC(=O)C1CCCN(c2ncnc3c2nc2n3CCCCC2)C1)C1CCCCC1 (centres undefined) |
| 655 s | CCc1ccc(-c2cn3cc(C(=O)NC4CC4)ccc3n2)cc1 |
| 757 s | COCCCNC(=O)c1ccc(-c2ccc(Oc3ccccc3)nn2)cc1 |
| 599 s | COc1ccc2nc(NCCn3cccn3)sc2c1 |

| RP-LC retention time | Structure (SMILES) |
| --- | --- |
| 615 s | O=C(Cn1ncc2c(N3CCN(c4ccccn4)CC3)ncnc21)Nc1ccc(F)cc1F |
| 831 s | Cc1cccc(CNC(=O)CN2CCN(Cc3ccc(F)cc3)C2=O)c1 |
| 872 s | Cc1cc2c(cc1C(=O)NCc1ccc3c(c1)CCCO3)OCCCO2 |
| 594 s | Cc1ccc2[nH]c(=O)c(CCC(=O)NCCCN3CCCC(C)C3)cc2c1 (centres undefined) |
| 703 s | Cc1noc([C@@H]2CC(F)(F)CN2C(=O)c2ccoc2)n1 |
| 576 s | CCCN1CCN(C(=O)c2nc3ccccn3c2-c2ccsc2)CC1 |
| 897 s | CCOC(=O)C1=C(C)N(CC(=O)NC2CCCC2)c2ncnn2C1c1ccc(C)cc1 (centres undefined) |
| 827 s | C=CCN(C)C(=O)c1cnn2c3c(cnc12)CCCCCC3 |
| 860 s | Cc1ccc2c(=O)c3cccc(CC(=O)O)c3oc2c1C |
| 984 s | Cc1ccc(C(C)NC(=O)c2nnc(-c3ccc(S(=O)(=O)N(C)C)cc3)o2)c(C)c1 (centres undefined) |
| 1010 s | CCn1c(=O)c2ccccc2n(Cc2nc(-c3ccc(F)cc3)no2)c1=O |
| 684 s | Cc1nc(-c2noc(-c3cccnc3)n2)cn1CC(=O)NC(C)c1ccccc1 (centres undefined) |
| 589 s | O=C(Nc1cccc(Cl)c1F)N1CCc2nc[nH]c2C1 |
| 1090 s | CCCN1C(=O)COc2ccc(-c3csc(NC(=O)/C=C/c4ccc(OCC)c(OC)c4)n3)cc21 |
| 693 s | Cc1cccc(C)c1NC(=O)Cn1cnc2nc(N3CCC(C(=O)NC4CC4)CC3)sc2c1=O |
| 777 s | O=C(c1cncc(Br)c1)N1CCCC(c2nnc(-c3ccccc3)o2)C1 (centres undefined) |
| 556 s | Cc1ncsc1CN1CCC2(CC1)CC(Cc1ccc(F)cc1)CCO2 (centres undefined) |
| 927 s | COC[C@@H]1OCCN(S(=O)(=O)c2cccc(OC)c2)[C@H]1c1ccccc1 |
| 1100 s | Cc1ccccc1-c1nc(N)n(C(=O)C(C)(C)C)n1 |
| 819 s | CC1CCN(S(=O)(=O)c2ccc3nn(Cc4ccc(Cl)cc4)c(=O)n3c2)CC1 |
| 732 s | Cc1ccc(Cl)cc1N1CCN(S(=O)(=O)c2nn(C)cc2C(=O)NCCN(C)C)CC1 |
| 806 s | O=C(O)c1cn(Cc2ccc(F)cc2)c(=O)c2ccccc12 |
| 758 s | CN(Cc1ccccc1)C(=O)C1CCCN(c2ncnc3c2nc2n3CCCCC2)C1 (centres undefined) |

| RP-LC retention time | Structure (SMILES) |
| --- | --- |
| 655 s | Cn1c(=O)n(C2CCN(C(=O)Cc3ccccc3)CC2)c2ncncc21 |
| 716 s | Cc1ccc(C(=O)N2C[C@@H]3C[C@H]2C[C@@H]3NS(=O)(=O)c2cccnc2)cc1F |
| 788 s | O=S(=O)(Nc1ccc(Nc2ccc(-n3cccn3)nn2)cc1)c1ccc(F)cc1F |
| 870 s | Cc1ccc(-c2nc3nc(C)cc(C)n3c2Nc2ccc(C(C)C)cc2)cc1 |
| 573 s | Cc1ccc(C(O)CN2CCN(c3ccccn3)CC2)c(C)c1 (centres undefined) |
| 1040 s | NC(=O)c1c(NC(=O)c2ccc(Br)s2)sc2c1CCCCC2 |
| 658 s | CCN(CC)CCCn1c(C)cc2c(c1=O)C(c1ccc(Cl)cc1)C(C#N)=C(N)O2 (centres undefined) |
| 807 s | CCOC(=O)c1sc(NC(=O)C2CCCCN2S(C)(=O)=O)cc1C (centres undefined) |
| 744 s | COC(=O)c1ccc2c(c1)N(Cc1cccc(F)c1)C(=O)CS2=O (centres undefined) |
| 803 s | Cc1cc(C)cc(NC(=O)c2c(O)c3cccnc3n(-c3ccc(F)cc3)c2=O)c1 |
| 581 s | COc1nn(C)cc1C(=O)NCC(c1ccco1)N1CCN(c2ccc(F)cc2)CC1 (centres undefined) |
| 732 s | CC(=O)N1CCc2sc(C(=O)N3CCN(c4ccccc4)CC3)cc2C1 |
| 762 s | CCc1cccc(NS(=O)(=O)c2c[nH]c3ncccc23)c1 |
| 737 s | COc1cccc(N2CCN(C(=O)C3CCCN(c4cnc5nccnc5c4)C3)CC2)c1 (centres undefined) |
| 567 s | O=C(Cn1cccn1)N1CCN(c2ncccn2)CC1 |
| 570 s | CCOc1ncccc1CNC(=O)NCc1cccc(OC)c1 |
| 600 s | O=C(c1ccc[nH]1)N1CCN(C(=O)c2ccco2)CC1 |
| 761 s | CCc1ccc(C2=C(C)C(N3CCCN(C(=O)NCCCOC)CC3)=NS2(=O)=O)cc1 |
| 885 s | CC1=C(c2ccc(C)cc2)S(=O)(=O)N=C1N1CCCN(C(=O)c2cccc(C#N)c2)CC1 |
| 581 s | CCc1nc2cc(N3CCC(C(=O)NCCN4CCOCC4)CC3)cnc2nc1CC |
| 966 s | COc1cccc(-n2cc(-c3nc(-c4ccccn4)no3)c3ccccc3c2=O)c1 |
| 1030 s | Cc1sc2ccn(C)c(=O)c2c1C(=O)NC1CCN(Cc2ccccc2)CC1 |
| 662 s | CCCn1c(CCNC(=O)c2ccc(OC)cc2)nc2cccnc21 |

| RP-LC retention time | Structure (SMILES) |
| --- | --- |
| 754 s | C=CC(=O)Nc1cccc(Sc2nc(Nc3ccc(N4CCN(C)CC4)cc3)ncc2Cl)c1 |
| 959 s | CCN(CC)S(=O)(=O)c1ccc2c(c1)CC(C(=O)NC1CCCCCCC1)N2C(C)=O (centres undefined) |
| 709 s | CCc1nncn1C1CCN(S(=O)(=O)c2cc(Cl)ccc2OC)CC1 |
| 575 s | Cn1nc(N2CCC(NC(=O)c3ccc[nH]c3=O)C2)ccc1=O (centres undefined) |
| 632 s | CCN1CCN(CCNC(=O)C2CCCN(c3ncc(-c4cccc(F)c4)cn3)C2)CC1 (centres undefined) |
| 678 s | CCCNC(=O)C1CCN(c2ccc(SCC(=O)Nc3cccc(Cl)c3C)nn2)CC1 |
| 1100 s | COc1cccc(-c2nnc(Cc3nc(-c4ccc(Br)cc4)no3)o2)c1 |
| 786 s | CC(C)CCNC(=O)C1(C)Cn2nc(C(=O)NCCc3c[nH]c4ccccc34)cc2C(=O)N1C (centres undefined) |
| 1180 s | CCOc1nc2ccccc2nc1N1CCCC(C(=O)Nc2ccccc2)C1 (centres undefined) |
| 1090 s | CCOc1ccc(CNC(=O)c2snc(C(=O)NCc3ccccc3Cl)c2N)cc1OCC |
| 645 s | COc1cc(NC(=O)NCc2cccs2)ccc1N1CCCCC1=O |
| 817 s | O=C(Cc1cccs1)N1CCCC1c1cccc(F)c1 (centres undefined) |
| 695 s | CCOC(=O)COc1cc(O)cc2oc(-c3ccccc3)cc(=O)c12 |
| 763 s | COc1cccc(S(=O)(=O)N2CCC(N3CCN(Cc4ccccc4)C(=O)C3=O)CC2)c1 |
| 692 s | CC(=O)N1CCC2(CC1)OC(=O)C(C)=C2C(=O)N1CCc2ccccc2C1 |
| 601 s | O=C(NCc1cccc(Cl)c1)c1ccc2c(c1)ncn2CCN1CCCC1 |
| 966 s | Cc1nc(-c2ccccc2)cc2nn(CC(=O)N3CCc4ccccc43)c(=O)n12 |
| 660 s | COCCn1c(CC2CCN(C(=O)Nc3ccc(F)c(Cl)c3)C2)nc2cccnc21 (centres undefined) |
| 765 s | O=C(O)CCC1CCN(S(=O)(=O)c2cccc(F)c2)CC1 |
| 732 s | COc1ccc(CNC(=O)C2CCCN(c3ncnc4c3nc3n4CCCCC3)C2)cc1 (centres undefined) |
